Where two headings read alike, the source gives them in different places.

This is an account of results in patent US10167453B2, “Saccharide oxidase, and production method for same and use of same” (AMANO ENZYME INC., priority 2012, dated 2019).

Data set [1] concerns OC[C@H]1OC(O)[C@H](O)[C@@H](O)[C@@H]1O. Nature of the data set: purified protein, by the assay type. As to conditions: other: saccharide as substrate of the purified protein; pH 7.0; 37.0 °C.
Text: Using the protein purified in the aforementioned Example together with glucose and maltose as substrates, the aforementioned saccharide oxidase activity method was used to measure the activity thereby obtaining Hanes-Woolf plots, from which each Michaelis constant (Km) was obtained.
Data set [2] addresses Acremonium chrysogenum NBRC30055-derived saccharide oxidase (Hapsidospora chrysogena, UniProt A0A086T4F9). Description: Investigation of substrate specificity. In kind it is biochemical. On the procedure:
Using each saccharide indicated in Table 4 shown below as a substrate and in the presence of oxygen, the protein purified in Example 1 described above was reacted for 5 minutes at 37° C. at pH 7.0, and the measurement was conducted in accordance with the aforementioned saccharide oxidase activity measuring method. In addition, regarding the activity toward the glucose as 100%, the relative value of the activity toward each saccharide was calculated, thereby evaluating the substrate specificity.

A short description of data set [3]: Investigation of pH stability. In kind it is physicochemical. Particulars: pH5.0 to pH10.5, 15 minutes at 37° C.; treatment at pH7.0 = 100%; maltose substrate. On the procedure:
(§1) Since a quinoneimine color having absorption band at a wavelength of 550 nm was formed when the enzymatic reaction advanced, the saccharide oxidase activity was measured by measuring the increase in the absorbance at a wavelength of 550 nm per minute.
The protein solution purified in the aforementioned Example 1 and the buffer solution of each pH used in the aforementioned Example 3 were mixed in equal volumes and treated for 15 minutes at 37° C., and thereafter the activity was measured by the aforementioned saccharide oxidase activity measuring method. As a substrate, maltose was used. In addition, regarding the activity when using monopotassium phosphate-sodium hydroxide buffer solution (pH7.0) for treatment as 100%, each relative value of the activity was calculated. The results are indicated in the drawing-substituting graph of FIG. 3.

A short description of data set [4]: Thermal inactivation after desugaring of egg white. It counts as physicochemical. On the procedure: 100 μL of the desugared egg white was subjected to a heat treatment at a temperature of 54, 56, and 58° C. for 1, 3, 5, and 8 minutes, respectively, and then cooled on ice, and the residual activity of each enzyme was measured.
A short description of data set [5]: Production of lactobionic acid (HPLC verification). In kind it is biochemical. Particulars: 3 U protein, 0.75 g lactose monohydrate, 23 hours, 40° C., 160 rpm. How it is done:
3 ml of a solution containing 0.75 g of lactose monohydrate, 0.225 g of potassium carbonate, and 3 U of the protein purified in the aforementioned Example 1 was added and shaken for 23 hours under the condition involving 40° C. and 160 rpm.
After the reaction, the sample was boiled for 10 minutes and then centrifuged at 15,000 rpm for 10 minutes. The resultant supernatant was filtered through a 0.45 μm filter and subjected to an HPLC analysis.

Data set [6] can be described thus: Investigation of thermostability. In kind it is physicochemical. How it is done:
as §1
The protein solution purified in the aforementioned Example 1 was subjected to a heat treatment for 15 minutes at a temperature of 20° C., 25° C., 30° C., 35° C., 37° C., 40° C., 45° C., 50° C., 55° C., 60° C., 65° C., 70° C., 75° C., and 80° C., and thereafter the residual activity was measured by the aforementioned saccharide oxidase activity method. Regarding the activity with no heat treatment as 100%, each value of the residual activity was calculated. The results are indicated in the drawing-substituting graph of FIG. 5.

Where [7] appears, read: saccharide as substrate, activity toward glucose = 100%, 37° C., pH 7.0, 5 minutes, in the presence of oxygen.
The mark [8] stands for this setting: relative activity 50% or higher versus glucose is judged satisfactory.

For orientation: Km means the substrate concentration at which the rate is half of its maximum. Turning to “Acremonium chrysogenum NBRC30055-derived saccharide oxidase (Hapsidospora chrysogenum ATCC 11550)”, the Km in data set [1] came out at 8 mM.

With Maltohexaose, in data set [2] (setting [7]), the “Relative activity (%)” value is on record as 28%.

For the molecule `O=C(CO)[C@@H](O)[C@H](O)[C@H](O)CO` [D(−)-Fructose], the “Relative activity (%)” value in data set [2] (pH 7) turned out to be 0%. Also, in data set [2] (setting [8]), the “effect of the saccharide oxidase on the substrate (in words)” value (“effect of the saccharide oxidase” below) is recorded as “No effect”.

As to `OC[C@H]1O[C@@H](O[C@H]2[C@H](O)[C@@H](O)[C@H](O)O[C@@H]2CO)[C@H](O)[C@@H](O)[C@@H]1O` [D(+)-Cellobiose], the “effect of the saccharide oxidase” value in data set [2] (setting [8]) is “satisfactory effect”.

For Maltotriose, the “effect of the saccharide oxidase” value in data set [2] (setting [8]) is “satisfactory effect”. For the same molecule, the “Relative activity (%)” value was 92% in data set [2] (setting [7]) and “about 92%” in data set [2] (saccharide as substrate, activity toward glucose = 100%, 37° C., pH 7.0, 5 minutes, in the presence of oxygen, listed as maltotriose).

For the molecule `OC[C@H]1O[C@H](O[C@H]2[C@H](O)[C@@H](O)[C@@H](O[C@H]3[C@H](O)[C@@H](O)[C@@H](O[C@H]4[C@H](O)[C@@H](O)C(O)O[C@@H]4CO)O[C@@H]3CO)O[C@@H]2CO)[C@H](O)[C@@H](O)[C@@H]1O` (some centres unmarked) [Maltotetraose], the “effect of the saccharide oxidase” value in data set [2] (setting [8]) is listed as “satisfactory effect”. Further, the “Relative activity (%)” value in data set [2] (setting [7]) is reported as 60%; in data set [2] (saccharide as substrate, activity toward glucose = 100%, 37° C., pH 7.0, 5 minutes, in the presence of oxygen, listed as maltotetraose), “about 60%”.

In the case of `O=C[C@H](O)[C@@H](O)[C@@H](O)[C@H](O)CO` [Galactose], in data set [2] (setting [8]), the “effect of the saccharide oxidase” value is reported as “satisfactory effect”. Also, the “Relative activity (%)” value is 79% in data set [2] (setting [7]) and “about 79%” in data set [2] (saccharide as substrate, activity toward glucose = 100%, 37° C., pH 7.0, 5 minutes, in the presence of oxygen, listed as galactose).

On to Maltose monohydrate, for which, in data set [2], the “effect of the saccharide oxidase” value is “satisfactory effect”.

As for `OC[C@H]1O[C@@](CO)(O[C@H]2O[C@H](CO)[C@@H](O)[C@H](O)[C@H]2O)[C@@H](O)[C@@H]1O` [Sucrose], the “Relative activity (%)” value in data set [2] (pH 7) is on record as 0%. In data set [2] (setting [8]), the “effect of the saccharide oxidase” value was “No effect”.

Consider Maltoheptaose, for which the “Relative activity (%)” value in data set [2] (setting [7]) came to 24%.

On to Maltopentaose, for which the “Relative activity (%)” value in data set [2] (setting [7]) was 39%.

In the case of Lactose monohydrate, the “effect of the saccharide oxidase” value in data set [2] is recorded as “satisfactory effect”.

B1: Saccharide oxidase: protein having saccharide oxidase activity purified from Acremonium chrysogenum NBRC30055, about 63 kDa, amino acid sequence SEQ. ID. NO:10 (protein, listed as Acremonium chrysogenum)
chain: MRSLAPLLSIAALARASPVDTSLLTRQETLNTCLEAAELSYVDVNSEDWEDAIVPHNLRVPVVPRAVVYATATEQIQAAVKCAVESEIRVSAKSGGHSYASMGLGGEDGSLVIQLDHWHDVTLRDDNTAVVSAGTRLGVVALELYAQGKRGISHGTCPSVGVGGHVVHGGYGFSSHTHGLALDAVVGANVVLADGSLVHASETENTDLFWALRGGGSSFGIVAEFEFETFDVSHNFSYFSIDSDISQETAEEATASLLAFQDALEEGLMDRKLNMRLSLGRPKVTLEAVYHGAKEDGRKALELFDDILGLNWSSNRTRANEADWLTMLESWTYGDPLNITYPYEGHDNAYTSSLVTRHIPEDAMASFMTYWKGVGQDRETPNWWLQMDVHGDANSRISEVDADSTAYSHRDKLWLFQFSSPLNPLRPDPEAAFALVNGYMDSIKDHLGDGEWGRYANYIDSELSREDAQTQYWSDHLDKLQAIKAELDPTQVFYNPQSIDPAAVE
As for B1, the “residual activity after pH treatment” value in data set [3] was at least 85%. The “residual enzyme activity in desugared egg white after heat treatment” value in data set [4] (54 and 56° C., 1, 3, 5 and 8 minutes) is listed as “no substantial reduction in the activity”; in data set [4] (58° C. for 5 minutes or longer, compared with the glucose oxidase), “significant reduction in the activity”. Also, the “production of lactobionic acid from lactose” value in data set [5] was “production of the lactobionic acid was verified”. In data set [6] (15 minutes at 45° C., pH7.0, no heat treatment = 100%), the “residual activity after heat treatment” value is recorded as at least 80%. Further, the “temperature up to which stability was observed” value in data set [6] (heat treatment for 15 minutes) is “up to 45 °C”.
